Substitutions are numbered along the chain they refer to. “And” between values parts separate entries of the source, which are not always exact repeats. Equal values may be shown once.

The target in assay [1] is T1, RBL domain of mouse Lat-1 (WT) (Mus musculus, UniProt Q80TR1).
T1 construct: Analytical ultracentrifugation experiments on RBL (residues 30–134) and larger constructs indicated a monomer in solution; α-factor signal propeptide (secretion leader) (N, cleaved yes); made in house; host or cells: Pichia pastoris strain X-33
T1 sequence (Q80TR1 30-134): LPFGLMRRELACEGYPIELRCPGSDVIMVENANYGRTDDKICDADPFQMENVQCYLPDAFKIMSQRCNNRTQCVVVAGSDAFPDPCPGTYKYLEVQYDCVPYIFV
As to the kind of experiment: NMR chemical shift perturbation titration of carbohydrates, wild-type RBL. The following applies: for Kd, WT / Kd: NMR titration, 30°C, 20 mM sodium phosphate pH 7.0, error from curve fitting, NBD = no binding detected (up to 100 mM compound). The class given is binding.
Source text: (§1) (B) Ligand titrations induced chemical shift perturbations in the NMR spectra as indicated by arrows. (C) The extent of these perturbations was plotted against ligand concentration and fitted to extract equilibrium parameters using the equation Δδ=Δδsat(([P]+[L]+Kd)−([P]+[L]+Kd)^2−4[P][L])/2[P] , where [P] and [L] are protein and ligand concentrations, respectively, Δδ the shift perturbation measured for each titration point and Δδsat the perturbation at saturation. Multiple perturbed resonances can be fitted simultaneously to different Δδsat values for each resonance and a single Kd value. Equilibrium parameters (Ka) measured for different compounds under the same conditions are compared in a logarithmic plot with error bars derived from the fit (D).
We studied the direct interaction of RBL with carbohydrates by monitoring NMR spectral perturbations induced by binding (Figures 1B–1D).
(§2) All experiments were performed at 30°C with home-built spectrometers, with 11.7 T, 14.1 T, 17.6 T, or 22.3 T field strengths. NMR samples consisted of 1–2 mM protein in a 20 mM sodium phosphate buffer (pH 7.0, 2 mM EDTA, 0.1 mM DSS, 0.02% NaN3) in 5% or 100% D2O, unless otherwise noted.

A further assay deals with T2, RBL E42A (Mus musculus, UniProt Q80TR1, E42A).
T2 construct: Analytical ultracentrifugation experiments on RBL (residues 30–134) and larger constructs indicated a monomer in solution; α-factor signal propeptide (secretion leader) (N, cleaved yes); made in house; host or cells: Pichia pastoris strain X-33
T2 sequence (Q80TR1 30-134 E42A): T1 sequence (Q80TR1 30-134) with E13A
As to the kind of experiment: NMR titration, RBL E42A mutant. The following applies: NBD = no binding detected.

In another assay the target is T3, RBL K120R (Mus musculus, UniProt Q80TR1, K120R).
T3 construct: Analytical ultracentrifugation experiments on RBL (residues 30–134) and larger constructs indicated a monomer in solution; α-factor signal propeptide (secretion leader) (N, cleaved yes); made in house; host or cells: Pichia pastoris strain X-33
T3 sequence (Q80TR1 30-134 K120R): T1 sequence (Q80TR1 30-134) with K91R
Kind of assay: NMR titration, RBL K120R mutant. The conditions noted are these: NBD = no binding detected.

The target of another assay is T4, RBL E42R (Mus musculus, UniProt Q80TR1, E42R).
T4 construct: Analytical ultracentrifugation experiments on RBL (residues 30–134) and larger constructs indicated a monomer in solution; α-factor signal propeptide (secretion leader) (N, cleaved yes); made in house; host or cells: Pichia pastoris strain X-33
T4 sequence (Q80TR1 30-134 E42R): T1 sequence (Q80TR1 30-134) with E13R
Kind of assay: NMR titration, RBL E42R mutant. The following applies: NBD = no binding detected.

In a further assay the target is T5, RBL K120A (Mus musculus, UniProt Q80TR1, K120A).
T5 construct: Analytical ultracentrifugation experiments on RBL (residues 30–134) and larger constructs indicated a monomer in solution; α-factor signal propeptide (secretion leader) (N, cleaved yes); made in house; host or cells: Pichia pastoris strain X-33
T5 sequence (Q80TR1 30-134 K120A): T1 sequence (Q80TR1 30-134) with K91A
As to the kind of experiment: NMR titration, RBL K120A mutant. The following applies: NBD = no binding detected.

Another assay has as its target SUEL (Heliocidaris crassispina, UniProt P22031). Kind of assay: biochemical. The class given is binding, sea urchin.
For assay [2], the target named is T6, RBL domain of mouse Lat-1 (Mus musculus, UniProt Q80TR1).
T6 construct: Analytical ultracentrifugation experiments on RBL (residues 30–134) and larger constructs indicated a monomer in solution; α-factor signal propeptide (secretion leader) (N, cleaved yes); made in house; host or cells: Pichia pastoris strain X-33
T6 sequence (Q80TR1 30-134): T1 sequence (Q80TR1 30-134)
As to the kind of experiment: Printed glycan array chip screen with AlexaFluor 488 labelled RBL (Consortium for Functional Glycomics). The class given is binding.
Procedure: RBL extensively dialyzed against PBS was fluorescently labeled with the AlexaFluor 488 protein labeling kit (Invitrogen). After labeling, free dye was removed by gel filtration chromatography, and the labeling efficiency was estimated as 30%. Approximately 0.1 mg of labeled protein was provided to the Consortium for Functional Glycomics (National Institute of General Medical Sciences/National Institutes of Health) for screening in a printed glycan array chip (version 3.0, 320 glycan targets).

SUEL, sequence (P22031 whole entry, the tested form may be a part): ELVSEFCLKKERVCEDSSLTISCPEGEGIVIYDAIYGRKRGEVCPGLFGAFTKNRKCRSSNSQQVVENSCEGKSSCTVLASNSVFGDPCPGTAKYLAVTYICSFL
Source text for RBL E42A: as §1
(§3) We created substitutions in these two residues of RBL and determined carbohydrate affinity by NMR titrations (Table 1).
as §2
Source text for RBL E42R: as §1, §3, §2
Source text for RBL K120A: as §1, §3, §2
Source text for RBL K120R: as §1, §3, §2

In the case of `OC1OC[C@@H](O)[C@@H](O)[C@@H]1O` (stereo partly drawn) [D-arabinose], the “Kd, WT” value in assay [1] is reported as “NBD”.
Regarding `C[C@H]1OC(O)[C@H](O)[C@@H](O)[C@H]1O` (stereo partly drawn) [D-fucose], the Kd in assay [1] was 61 ± 1.3 mM.
On to `OC[C@H]1OC(O)[C@H](O)[C@@H](O)[C@H]1O` (stereo partly drawn) [D-galactose], for which, at RBL E42A, the “Kd, E42A” value is recorded as “NBD”. Moreover, the “Kd, K120R” value at RBL K120R is “NBD”. In addition, the “Kd, E42R” value on RBL E42R is on record as “NBD”. The “Kd, K120A” value at RBL K120A is recorded as “NBD”. In assay [1], the Kd was found to be 33.6 ± 0.4 mM.
Turning to `OC[C@H]1OC(O)[C@H](O)[C@@H](O)[C@@H]1O` (stereo partly drawn) [D-glucose], the “Kd, WT” value in assay [1] was “NBD”.
Still for that read-out and setting: for `O=C[C@H](O)[C@@H](O)[C@H](O)[C@H](O)C(=O)O` [D-glucuronic acid] the value was “NBD”; for `OC[C@H]1OC(O)[C@@H](O)[C@@H](O)[C@@H]1O` (stereo partly drawn) [D-mannose], “NBD”.
`O[C@@H]1[C@@H](O)[C@@H](O)CO[C@H]1O` [L-arabinose]: the Kd in assay [1] was 75 ± 1.3 mM.
In the case of `C[C@H](O)[C@@H](O)[C@@H](O)[C@H](O)C=O` [L-fucose], the “Kd, WT” value in assay [1] was “NBD ^c”.
On to `C[C@@H]1OC(O)[C@H](O)[C@H](O)[C@H]1O` (stereo partly drawn) [L-rhamnose], for which the “Kd, E42A” value on RBL E42A is “NBD”. Also, the Kd at SUEL is 0.1 to 0.2 mM; in assay [1], 1.8 mM and 1.78 mM. Further, the “affinity of SUEL relative to Lat-1 RBL (times tighter)” value on SUEL (SUEL Kd vs Lat-1 RBL Kd 1.8 mM, ref Hosono et al., 1999) is on record as 10. Besides, at RBL K120R, the “Kd, K120R” value was “NBD”. Also, the “Kd, E42R” value on RBL E42R is reported as “NBD”. For the same molecule, the “Kd, K120A” value at RBL K120A was “NBD”.
Take `OC[C@H]1O[C@H](OCC2O[C@@H](O)[C@H](O)[C@@H](O)[C@@H]2O)[C@H](O)[C@@H](O)[C@H]1O` (stereo partly shown) [Melibiose]: the dissociation constant (Kd) in assay [1] stood at 33.3 ± 0.5 mM.
Consider `CC(=O)N[C@@H]1[C@@H](O)[C@@H](O)[C@@H](CO)O[C@@H]1O` [N-acetyl galactosamine], for which, in assay [1], the “Kd, WT” value is on record as “NBD”.
On the same count and under the same terms, the value for `CC(=O)N[C@@H]1[C@@H](O)[C@H](O)[C@@H](CO)O[C@H]1O` [N-acetyl glucosamine] was “NBD”.
On the same count and under the same terms, the value for `CC(=O)N[C@H]1[C@H]([C@H](O)[C@H](O)CO)OC(O)(C(=O)O)C[C@@H]1O` (stereo partly shown) [N-acetyl neuraminic acid] was “NBD”.
As to `C[C@@H]1O[C@@H](O[C@H]2C[C@@H](O)[C@]3(CO)[C@H]4[C@H](O)C[C@]5(C)[C@@H](C6=CC(=O)OC6)CC[C@]5(O)[C@@H]4CC[C@]3(O)C2)[C@H](O)[C@H](O)[C@H]1O` [Ouabain], the Kd in assay [1] was 2.21 ± 0.03 mM.
As for “Galα1-3(Fucα1-2)Galβ1-3GlcNAcβ-Sp0 [glycan #95]”, in assay [2] (fluorescently labeled RBL, glycan array version 3.0, 320 glycan targets, triplicate), the “binding on immobilized glycan array” value is “any interaction”. Further, the “level of fluorescent signal relative to what is commonly found in this assay” value in assay [2] (glycan array version 3.0) was “approximately 1/20”. In assay [1] (NMR titration with glycan as ligand), the “binding in NMR titration compared to galactose” value is on record as “did not show stronger or altered binding compared to galactose”.
For Heparin, the “Kd, WT” value in assay [1] is given as “NBD”.

For the origin of these results see paper PMC2430599, “Solution Structure and Sugar-Binding Mechanism of Mouse Latrophilin-1 RBL: a 7TM Receptor-Attached Lectin-Like Domain” (Structure(London, England:1993), 2008).
